According to patent US7838674B2, “Tetracyclic lactame derivatives” (Novartis AG, priority 2007, dated 2010):
Where a name gives a salt, the structure may show the parent alone.

These molecules were tested against human MK2 (Homo sapiens, UniProt P49137) (assay: MAPKAPK2 kinase assay (TR-FRET, Hsp27 peptide substrate)). Conditions: not given.
Chain of human MK2 (P49137 whole entry): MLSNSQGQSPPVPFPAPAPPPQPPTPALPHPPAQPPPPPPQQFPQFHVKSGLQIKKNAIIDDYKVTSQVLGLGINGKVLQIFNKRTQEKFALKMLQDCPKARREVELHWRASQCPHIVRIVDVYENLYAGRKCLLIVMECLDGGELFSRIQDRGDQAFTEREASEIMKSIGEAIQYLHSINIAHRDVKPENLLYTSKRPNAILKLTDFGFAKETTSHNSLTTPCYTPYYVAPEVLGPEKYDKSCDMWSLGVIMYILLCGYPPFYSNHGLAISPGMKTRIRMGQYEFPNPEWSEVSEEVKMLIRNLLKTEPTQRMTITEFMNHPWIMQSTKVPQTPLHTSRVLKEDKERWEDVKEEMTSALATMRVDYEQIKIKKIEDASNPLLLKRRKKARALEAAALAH

| SMILES | IC50 [nM] |
| --- | --- |
| O=C1NCC2(CC2)c2[nH]c3c(c21)CCc1cnc(/C=C/c2ccccc2)cc1-3 [Example 2, 2-(1-Aminomethyl-cyclopropyl)-8-((E)-styryl)-4,5-dihydro-1H-pyrrolo[2,3-f]isoquinoline-3-carboxylic acid lactame] | 21 |
| COCCOc1cncc(-c2cc3c(cn2)CCc2c-3[nH]c3c2C(=O)NC2(CCC2)C3)c1 [Example 3, 2-(1-Amino-cyclobutylmethyl)-8-[5-(2-methoxy-ethoxy)-pyridin-3-yl]-4,5-dihydro-1H-pyrrolo[2,3-f]isoquinoline-3-carboxylic acid lactame] | 63 |
| O=C1NC2(CCC2)Cc2[nH]c3c(c21)CCc1cnc(/C=C/c2ccccc2)cc1-3 [Example 4, 2-(1-Amino-cyclobutylmethyl)-8-((E)-styryl)-4,5-dihydro-1H-pyrrolo[2,3-f]isoquinoline-3-carboxylic acid lactame] | 65 |
| O=C1NC2(CC2)Cn2nc3c(c21)CCc1cnc(/C=C/c2ccccc2)cc1-3 [Example 10, 2-(1-Amino-cyclopropylmethyl)-8-((E)-styryl)-4,5-dihydro-2H-1,2,7-triaza-cyclopenta[a]naphthalene-3-carboxylic acid lactame] | > 10 |
| COc1ccc(-c2cc3c(cn2)CCc2c-3nn3c2C(=O)NC2(CN(C(C)=O)C2)C3)cc1 [Example 12, 2-(1-Acetyl-3-amino-azetidin-3-ylmethyl)-8-(4-methoxy-phenyl)-4,5-dihydro-2H-1,2,7-triaza-cyclopenta[a]naphthalene-3-carboxylic acid lactame] | > 10 |
| COc1ccc(-c2ncc3c(n2)-c2[nH]c4c(c2CC3)C(=O)NC2(CNC2)C4)cc1 [Example 18, 2-(3-Amino-azetidin-3-ylmethyl)-8-(4-methoxy-phenyl)-4,5-dihydro-1H-1,7,9-triaza-cyclopenta[a]naphthalene-3-carboxylic acid lactame hydrochloride] | 18 |

The molecules below were run against T1, MAPKAPK2 enzyme (HIS-MK2, Invitrogen PV4019) (Homo sapiens, UniProt P49137) (assay: Alternative MAPKAPK2 assay (Caliper microfluidic mobility shift, HSP27-peptide)). Conditions: HIS-MK2 0.013 nM, ATP 10 μM, 60 min at 30° C.
T1 construct: His; purchased Invitrogen PV4019
Assay type: biochemical

T1 sequence (P49137 whole entry): as above

| SMILES | IC50 [nM] |
| --- | --- |
| O=C1NC2(CC2)Cc2[nH]c3c(c21)CCc1cnc(Oc2ccc(F)cc2F)nc1-3 [Example 266, 2-(1-Amino-cyclopropylmethyl)-8-(2,4-difluoro-phenoxy)-4,5-dihydro-1H-1,7,9-triaza-cyclopenta[a]naphthalene-3-carboxylic acid lactam] | > 10 |
| COc1ccc(-c2ncc3c(n2)-c2[nH]c4c(c2CC3)C(=O)NCC42CNC2)cc1F [Example 268, 2-(3-Aminomethyl-azetidin-3-yl)-8-(3-fluoro-4-methoxy-phenyl)-4,5-dihydro-1H-1,7,9-triaza-cyclopenta[a]naphthalene-3-carboxylic acid lactan hydrochloride] | 8 |
| O=C(NCc1ccccc1)c1ccc(-c2cc3c(cn2)CCc2c-3[nH]c3c2C(=O)NC2(CC2)C3)o1 [Example 282, 5-(9,9-Spirocyclopropyl-7-oxo-6,7,8,9,10,11-hexahydro-5H-3,8,11-triaza-benzo[a]fluoren-2-yl)-furan-2-carboxylic acid benzylamide] | 21 |
| COc1ncc(-c2cc3c(cn2)CCc2c-3[nH]c3c2C(=O)NC2(CC2)C3)s1 [Example 283, 2-(1-Amino-cyclopropylmethyl)-8-(2-methoxy-5-thiazolyl)-4,5-dihydro-1H-pyrrolo[2,3-f]isoquinoline-3-carboxylic acid lactam] | 98 |
| O=C1NC2(CNC2)Cc2[nH]c3c(c21)CCc1cnc(-c2cccc(Br)c2)nc1-3 [Example 285, 2-(3-Amino-azetidin-3-ylmethyl)-8-(3-bromo-phenyl)-4,5-dihydro-1H-1,7,9-triaza-cyclopenta[a]naphthalene-3-carboxylic acid lactam hydrochloride] | 7 |
| Cn1c2c(c3c1-c1nc(-c4cccc(Br)c4)ncc1CC3)C(=O)NC1(CNC1)C2 [Example 286, 2-(3-Amino-azetidin-3-ylmethyl)-8-(3-bromo-phenyl)-1-methyl-4,5-dihydro-1H-1,7,9-triaza-cyclopenta[a]naphthalene-3-carboxylic acid lactam hydrochloride] | 48 |
| Cn1c2c(c3c1-c1nc(-c4cccc(C#N)c4)ncc1CC3)C(=O)NC1(CNC1)C2 [Example 287, 2-(3-Amino-azetidin-3-ylmethyl)-8-(3-cyano-phenyl)-1-methyl-4,5-dihydro-1H-1,7,9-triaza-cyclopenta[a]naphthalene-3-carboxylic acid lactam hydrochloride] | 25 |
| O=C(NCc1ccccc1)c1cncc(-c2ncc3c(n2)-c2[nH]c4c(c2CC3)C(=O)NCC42CC2)c1 [Example 290, N-Benzyl-5-(10-spirocyclopropyl-7-oxo-6,7,8,9,10,11-hexahydro-5H-1,3,8,11-tetraaza-benzo[a]fluoren-2-yl)-nicotinamide] | 86 |
| Cn1c2c(c3c1-c1nc(-c4cncc(C(=O)NCc5ccccc5)c4)ncc1CC3)C(=O)NC1(CNC1)C2 [Example 296, 2-(3-Amino-azetidin-3-ylmethyl)-8-(3-benzylcarbamoyl-3-pyridyl)-1-methyl-4,5-dihydro-1H-1,7,9-triaza-cyclopenta[a]naphthalene-3-carboxylic acid lactam hydrochloride] | 17 |
| O=C1NCC2(CCC2)c2[nH]c3c(c21)CCc1cnc(-c2ccc(CN4CCOCC4)c(F)c2)cc1-3 [Example 298, 2-(3-Fluoro-4-morpholin-4-ylmethyl-phenyl)-10-spirocyclobutyl-5,6,8,9,10,11-exahydro-3,8,11-triaza-benzo[a]fluoren-7-one] | 20 |
| COc1ccc(-c2cc3c(cn2)CCc2c-3[nH]c3c2C(=O)NCC32CCC2)cc1F [Example 299, 2-(3-Fluoro-4-methoxy-phenyl)-10-spirocyclobutyl-5,6,8,9,10,11-hexahydro-3,8,11-triaza-benzo[a]fluoren-7-one] | 39 |
| O=C1NCC2(CCC2)c2[nH]c3c(c21)CCc1cnc(-c2ccc(F)nc2)cc1-3 [Example 300, 2-(6-Fluoro-pyridin-3-yl)-10-spirocyclobutyl-5,6,8,9,10,11-hexahydro-3,8,11-triaza-benzo[a]fluoren-7-one] | 15 |
| O=C1NCC2(CC2)c2[nH]c3c(c21)CCc1cnc(-c2cncc(N4CCOCC4)c2)cc1-3 [Example 302, 2-(5-Morpholin-4-yl-pyridin-3-yl)-10-spirocyclopropyl-5,6,8,9,10,11-hexahydro-3,8,11-triaza-benzo[a]fluoren-7-one] | 22 |
| CC(=O)N1CCN(c2ccc(-c3cc4c(cn3)CCc3c-4[nH]c4c3C(=O)NCC43CC3)cc2C#N)CC1 [Example 313, 2-(4-Acetyl-piperazin-1-yl)-10-spirocyclopropyl-5-(7-oxo-6,7,8,9,10,11-hexahydro-5H-3,8,11-triaza-benzo[a]fluoren-2-yl)-benzonitrile] | 8 |
| CC(C)N1CCN(c2ccc(-c3cc4c(cn3)CCc3c-4[nH]c4c3C(=O)NCC43CC3)cc2C#N)CC1 [Example 314, 2-(4-Isopropyl-piperazin-1-yl)-10-spirocyclopropyl-5-(7-oxo-6,7,8,9,10,11-hexahydro-5H-3,8,11-triaza-benzo[a]fluoren-2-yl)-benzonitrile] | 12 |
| N#Cc1cc(-c2cc3c(cn2)CCc2c-3[nH]c3c2C(=O)NCC32CC2)ccc1N1CCN(CCO)CC1 [Example 315, 2-[4-(2-Hydroxy-ethyl)-piperazin-1-yl]-10-spirocyclopropyl-5-(7-oxo-6,7,8,9,10,11-hexahydro-5H-3,8,11-triaza-benzo[a]fluoren-2-yl)-benzonitrile] | 9 |
| CN1CCN(c2ccc(-c3cc4c(cn3)CCc3c-4[nH]c4c3C(=O)NCC43CC3)cn2)CC1 [Example 316, 2-[6-(4-Methyl-piperazin-1-yl)-pyridin-3-yl]-10-spirocyclopropyl-5,6,8,9,10,11-hexahydro-3,8,11-triaza-benzo[a]fluoren-7-one] | 11 |
| CN1CCN(c2c(F)cc(-c3cc4c(cn3)CCc3c-4[nH]c4c3C(=O)NCC43CC3)cc2C#N)CC1 [Example 317, 3-Fluoro-2-(4-methyl-piperazin-1-yl)-10-spirocyclopropyl-5-(7-oxo-6,7,8,9,10,11-hexahydro-5H-3,8,11-triaza-benzo[a]fluoren-2-yl)-benzonitrile] | 51 |
| CN(C)C1CCN(c2ccc(-c3cc4c(cn3)CCc3c-4[nH]c4c3C(=O)NCC43CC3)cc2C#N)C1 (centres unmarked) [Example 318, 2-(3-Dimethylamino-pyrrolidin-1-yl)-10-spirocyclopropyl-5-(7-oxo-6,7,8,9,10,11-hexahydro-5H-3,8,11-triaza-benzo[a]fluoren-2-yl)-benzonitrile] | 6 |
| N#Cc1cc(-c2cc3c(cn2)CCc2c-3[nH]c3c2C(=O)NCC32CC2)ccc1CN1CCOCC1 [Example 319, 2-Morpholin-4-ylmethyl-10-spirocyclopropyl-5-(7-oxo-6,7,8,9,10,11-hexahydro-5H-3,8,11-triaza-benzo[a]fluoren-2-yl)-benzonitrile] | 38 |
| CN1CCN(c2ccc(-c3cc4c(cn3)CCc3c-4[nH]c4c3C(=O)NC3(CC3)C4)cc2C#N)CC1 [Example 321, 2-(4-Methyl-piperazin-1-yl)-9-spirocyclopropyl-5-(7-oxo-6,7,8,9,10,11-hexahydro-5H-3,8,11-triaza-benzo[a]fluoren-2-yl)-benzonitrile] | 9 |
| O=C1NCC2(CNC2)c2[nH]c3c(c21)CCc1cnc(-c2ccc(CN4CCOCC4)c(F)c2)nc1-3 [Example 326, 2-(3-Aminomethyl-azetidin-3-yl)-8-(3-fluoro-4-morpholin-4-ylmethyl-phenyl)-4,5-dihydro-1H-1,7,9-triaza-cyclopenta[a]naphthalene-3-carboxylic acid lactam] | 15 |
| O=C1NCC2(CNC2)c2[nH]c3c(c21)CCc1cnc(-c2ccc(N4CCOCC4)nc2)nc1-3 [Example 329, 2-(3-Aminomethyl-azetidin-3-yl)-8-(6-morpholin-4-yl-pyridin-3-yl)-4,5-dihydro-1H-1,7,9-triaza-cyclopenta[a]naphthalene-3-carboxylic acid lactam] | 6 |
